Values joined by “and” are separate entries in the source; they are usually repeats but may differ in a detail not shown here. Identical values can stand only once. Like-named read-outs stand apart in the source and are kept apart here.
Legend:
[1] = molecular target: T1, PA ATP synthase cIle65Phe mutant (Pseudomonas aeruginosa, UniProt Q9HT15, I65F); experiment: NADH-driven ATP synthesis inhibition, DK8/pASH20 cI65F membrane vesicles; assay type: biochemical
T1 construct: expressed in transfected cells; host or cells: E. coli K-12 DK8 transformed with pASH20 carrying mutated atpE
Description: (§1) P. aeruginosa (ATCC 9027) was streaked onto a 10% TSB agar plate and incubated at room temperature for 72 h. A single colony was resuspended in 100 μL of H2O, and 5 μL was used as the DNA template for PCR with Q5 polymerase (NEB) and […] each of forward and reverse primers. Primers were complementary to regions flanking the atp operon and included sequences for HindIII and NdeI restriction sites (see the SI for primer sequences). The resulting 6.9 kbp DNA fragment was digested with HindIII and NdeI and ligated into digested vector pBR322 (New England Biolabs). The resultant pASH20(-i) plasmid contains a partial atpI gene. To complete the atpI gene, the HindII-XhoI fragment of pASH20(-i) was replaced with a synthetic fragment with a complete atpI (Twist Bioscience) to yield pASH20. The sequence of the entire operon was verified by Sanger DNA sequencing through the ligation sites. Subunit c mutations were introduced by exchanging the XhoI-BamHI fragment containing atpE with a synthetic fragment containing mutated atpE (Twist Bioscience).
(§2) Vesicles were prepared from P. aeruginosa and transformed E. coli cells as previously described.[22] Briefly, cells were grown in LB liquid medium at 37 °C with shaking and harvested by centrifugation after 7 h of growth. Cultures of transformant E. coli included 100 μg/mL ampicillin. Cells were disrupted in TMG buffer (50 mM Tris-HCl, MgCl2, 10% (v/v) glycerol, pH 7.5) using an Avestin B15 homogenizer at 19,000 psi. After unbroken cells and debris were cleared by centrifugation at 9000g, inverted vesicles were collected by centrifugation at 193,000g, resuspended in TMG buffer, and stored at −80 °C. Protein concentrations were determined using a modified Lowry assay.[25]
(§3) Continuous ATP synthesis activity of inverted membrane vesicles was measured using a luciferin/luciferase luminescence assay as previously described.[22] Inhibition of ATP synthesis activity by test compounds was determined using an end point assay essentially as previously described.[18],[26] In this assay, the synthesis reaction was initiated by 2.5 mM NADH, proceeded for 10 min, and was stopped with 1% trichloroacetic acid, 2 mM CCCP, and 10 mM EDTA. Samples from each reaction were diluted 500-fold prior to the addition of luciferase since quinoline compounds are known to inhibit luciferase.[27] This dilution was sufficient to minimize inhibition of luciferase (Figure S4). Each replicate set included a positive control containing DMSO with no compound and a negative control containing carbonyl cyanide m-chlorophenyl hydrazone. Luminescence values were corrected for the background by subtracting the negative control and then normalized to the positive control within the same replicate. Dose–response curves were fit using eq 1, where activity is the relative ATP synthesis activity, [I] is the concentration of inhibitor in μg/mL, and n is the Hill coefficient. [drawing 1] 1

[2] = test system: P. aeruginosa efflux knockout GKCW120 (PΔ6); design: method as in PMID 35990476; conditions: cited from earlier work
[3] = test system: P. aeruginosa (ATCC 9027); design: method as in PMID 35990476; conditions: cited from earlier work
PA ATP synthase [4] = molecular target: T2, PA ATP synthase (Pseudomonas aeruginosa, UniProt Q9HT15); design: method as in PMID 35990476; conditions: PA membrane vesicles; cited from earlier work
T2 construct: Inverted membrane vesicles were prepared from PA 9027; endogenous in cells; host or cells: Pseudomonas aeruginosa ATCC 9027, inverted membrane vesicles

E. coli (ATCC 25922) = test system: E. coli (ATCC 25922); design: method as in PMID 35990476; conditions: cited from earlier work
[5] = test system: EC electron transport chain; experiment: Electron transport activity (NADH-driven H+ pumping, ACMA quenching), E. coli DK8/pASH20 vesicles; assay type: biochemical, Escherichia coli
Description: Determination of electron transport activity. In an opaque black 96-well plate, inverted membrane
vesicles from PA or E. coli DK8 pASH20 were added to HMK buffer containing 0.3 µg/mL 9-amino-6-chloro-
2-methoxyacridine (ACMA) and 0-64 µg/mL test compound in DMSO. After measurement of baseline
ACMA fluorescence for 60 s, redox-driven H+ pumping was initiated by addition of NADH to 0.8 mM, and
fluorescence quenching was monitored for 120 s before addition of nigericin to 0.5 µg/mL. Relative
activity is reported as the minimum fluorescence value normalized to the maximum fluorescence value
following addition of nigericin. […]

[6] = molecular target: T3, PA ATP synthase cIle65Ala mutant (Pseudomonas aeruginosa, UniProt Q9HT15, I65A); experiment: NADH-driven ATP synthesis inhibition, DK8/pASH20 cI65A membrane vesicles; assay type: biochemical
T3 construct: expressed in transfected cells; host or cells: E. coli K-12 DK8 transformed with pASH20 carrying mutated atpE
Description: as §1, §2, §3

[7] = molecular target: T4, PA ATP synthase expressed in E. coli DK8/pASH20 (Pseudomonas aeruginosa, UniProt Q9HT15); experiment: NADH-driven ATP synthesis inhibition, DK8/pASH20 membrane vesicles; assay type: biochemical
T4 construct: expressed in transfected cells; host or cells: E. coli K-12 DK8 (lacks its own ATP synthase) transformed with pASH20 (pBR322 derivative)
Description: as §1, §2, §3

PA ATP synthase [8] = molecular target: T2, PA ATP synthase; experiment: NADH-driven ATP synthesis inhibition, PA inverted membrane vesicles; assay type: biochemical; conditions: inhibition of ATP synthesis activity
Description: as §2, §3

[9] = test system: PA electron transport chain; design: method as in PMID 35990476; conditions: PA vesicles; cited from earlier work
[10] = test system: drug-resistant P. aeruginosa BAA 2110; experiment: Antimicrobial susceptibility (broth microdilution), BAA 2110; assay type: cell-based, Pseudomonas aeruginosa; conditions: Pseudomonas aeruginosa, BAA2110, read-out: antibacterial activity (MIC) BAA 2110
Description: (§4) The following are general steps, unless otherwise noted. All steps were completed using aseptic techniques. All media and glassware were sterilized via an autoclave at 121 °C for 60 min. All agitation occurred at 160 rpm in a temperature-controlled console shaker (Excella E25) at 37 °C. Full-strength tryptic soy broth (TSB) was made by dissolving 30 g of BD Bacto TSB powder in 1 L of deionized water. Purchased and acquired bacterial strains used were E. coli (ATCC 25922), P. aeruginosa (ATCC 9027), drug-resistant P. aeruginosa from ATCC Panel MP-23 (BAA 2108, BAA 2109, BAA 2110), and P. aeruginosa efflux knockout GKCW120 (PΔ6)[6] provided by Zgurskaya and co-workers at the University of Oklahoma.
(§5) Susceptibility testing was performed in biological triplicate using the broth microdilution method as outlined by the Clinical and Laboratory Standards Institute. […] Briefly, to each well, 1 μL of compound in DMSO, 89 μL of TSB, and 10 μL of bacterial inoculum, grown from a single colony in 10 mL of TSB for 4–6 h, were added. After incubation for 12–15 h at 37 °C, absorbance at 590 nm was read on a Biotek Synergy HTX Multimode plate reader. Data were processed by background subtracting the media absorbance and then normalizing the data to full bacterial growth with the vehicle only. MIC is defined as the lowest concentration of antibiotic or antibiotic/adjuvant combination that achieves ≥85% growth inhibition, which corresponds to no visible growth.

[11] = test system: P. aeruginosa efflux knockout GKCW120 (PΔ6); experiment: Antimicrobial susceptibility (broth microdilution), PΔ6 efflux knockout; assay type: cell-based, Pseudomonas aeruginosa; conditions: n = 3; >85% reduction in growth at OD 590 nm
Description: as §4, §5
(§6) Initial antibacterial activity screen of compounds 4, 5, and S1-S6
(§7) Compounds 4, 5, and S1-S6 were screened for initial antibiotic activity against a susceptible laboratory strain of EC (designated EC 25922), and non-virulent, biofilm forming strain of PA (designated PA 9027), and PD6 (efflux knockout strain6) at 128 µg/mL in DMSO. Sterilization and Antimicrobial Susceptibility Assay procedures utilized were the same as described in the methods.
(§8) Table S1. Antibacterial activity screening results for compounds 4, 5, and S1-S6 at 128 µg/mL
(§9) Table S1. Antibacterial activity screening results for compounds 4, 5, and S1-S6 at 128 µg/mL.

[12] = test system: P. aeruginosa (ATCC 9027); experiment: Antimicrobial susceptibility (broth microdilution), PA 9027; assay type: cell-based, Pseudomonas aeruginosa; conditions: Pseudomonas aeruginosa, ATCC9027; n = 3; >85% reduction in growth at OD 590 nm; read-out: antibacterial activity (MIC) PA 9027
Description: as §4, §5, §6, §7, §8, §9

[13] = test system: drug-resistant P. aeruginosa BAA 2109; experiment: Antimicrobial susceptibility (broth microdilution), BAA 2109; assay type: cell-based, Pseudomonas aeruginosa; conditions: Pseudomonas aeruginosa, BAA2109, read-out: antibacterial activity (MIC) BAA 2109
Description: as §4, §5

[14] = test system: drug-resistant P. aeruginosa BAA 2108; experiment: Antimicrobial susceptibility (broth microdilution), BAA 2108; assay type: cell-based, Pseudomonas aeruginosa; conditions: Pseudomonas aeruginosa, BAA2108, read-out: antibacterial activity (MIC) BAA 2108
Description: as §4, §5

[15] = inhibition of ATP synthesis activity

| Compound | IC50 [1] [µM] | Hill coefficient of dose response fit, DK8/pASH20 cI65F vesicles [1, 15] | antibacterial activity (MIC) PΔ6 [2] [µg/mL] | antibacterial activity (MIC) PA 9027 [3] [µg/mL] | PA ATP synthesis IC50 (PA ATP synthase [4]) [µg/mL] | antibacterial activity (MIC) EC 25922 (E. coli (ATCC 25922)) [µg/mL] | inhibition of EC ETC-driven H+ pumping, in words ([5]; 0-64 µg/mL, Figure S2) | Inhibition of the EC electron transport chain IC50 ([5]; EC (DK8/pASH20) vesicles) [µg/mL] | IC50 ([6]; ATP synthesis IC50, DK8/pASH20 cI65A vesicles, cI65A mutant, NADH-driven, luminescence assay) [µM] | Hill coefficient of dose response fit, DK8/pASH20 cI65A vesicles [6, 15] | IC50 ([7]; ATP synthesis IC50, DK8/pASH20 vesicles, wild-type PA ATP synthase in E. coli DK8, NADH-driven, end point luminescence assay) | Hill coefficient of dose response fit, DK8/pASH20 vesicles [7, 15] | Hill coefficient of dose response fit, PA vesicles (PA ATP synthase [8]) | Inhibition of the PA electron transport chain IC50 [9] | MIC [10] [µg/mL] | antibacterial activity (MIC) PΔ6 [11] [µg/mL] | MIC [12] [µg/mL] | MIC [13] [µg/mL] | MIC [14] [µg/mL] |
| --- | --- | --- | --- | --- | --- | --- | --- | --- | --- | --- | --- | --- | --- | --- | --- | --- | --- | --- | --- |
| COC(=O)[C@H](Cc1ccc(O)cc1)NCc1cc2ccccc2nc1SC [Compound 1, reference compound] | 22 | 1.4 | >256 | >256 | 10.0 | >128 | did not inhibit the electron transport chain strongly | >64 | 18 | 1.1 | 27.7 µM and 28.8 µM | 1.3 | 1.4 | >64[18] μg/mL | – | – | – | – | – |
| CNC(C)C1CCC(N)C(OC2C(N)CC(N)C(OC3OCC(C)(O)C(NC)C3O)C2O)O1 (stereo not shown) [gentamicin, reference compound] | – | – | – | – | – | – | – | – | – | – | – | – | – | – | 4 to 8 | >4 | 2 to 4 | 2 | 16 |
